# Results from ChEMBL document CHEMBL1201862, “PubChem BioAssay data set” (2004).
# Where “and” joins values, the source holds several entries; their conditions need not be identical. Identical values can stand only once.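 Protocol summary: plate cells (96-well), add compound at 5 concentrations, incubate 48 h, interpolate endpoints linearly. GI50 is the concentration that inhibits growth by half.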 Calls of active or inactive are those of the source. Rule as the data show it: active = GI50 up to about 1.1 µM and inactive = higher.
# Key:
# Experiment in all cases: growth of human tumour cells (NCI), 48 h
# A549 = tested on: A549
# ACHN = tested on: ACHN
# COLO 205 = tested on: COLO 205
# HCC 2998 = tested on: HCC 2998
# HCT-116 = tested on: HCT-116
# HOP-92 = tested on: HOP-92
# Hs-578T = tested on: Hs-578T
# LOX IMVI = tested on: LOX IMVI
# MDA-MB-231 = tested on: MDA-MB-231
# MDA-MB-435 = tested on: MDA-MB-435
# NCI-H23 = tested on: NCI-H23
# NCI-H522 = tested on: NCI-H522
# OVCAR-4 = tested on: OVCAR-4
# OVCAR-5 = tested on: OVCAR-5
# OVCAR-8 = tested on: OVCAR-8
# SK-MEL-5 = tested on: SK-MEL-5
# SN12C = tested on: SN12C
# SW-620 = tested on: SW-620
# U-251 = tested on: U-251
# UO-31 = tested on: UO-31
Structure (SMILES),GI50 (A549),GI50 (ACHN),GI50 (COLO 205),GI50 (HCC 2998),GI50 (HCT-116),GI50 (HOP-92),GI50 (Hs-578T),GI50 (LOX IMVI),GI50 (MDA-MB-231),GI50 (MDA-MB-435),GI50 (NCI-H23),GI50 (NCI-H522),GI50 (OVCAR-4),GI50 (OVCAR-5),GI50 (OVCAR-8),GI50 (SK-MEL-5),GI50 (SN12C),GI50 (SW-620),GI50 (U-251),GI50 (UO-31)
CCN(CC)c1ccc(/C=C2/C[N+](C)(C)C/C(=C/c3ccc(N(CC)CC)cc3)C2=O)cc1,4.92 µM (inactive),32 µM (inactive),1.29 µM (inactive),2.42 µM (inactive),2.3 µM (inactive),0.813 µM (active),2.47 µM (inactive),1.69 µM (inactive),2.58 µM (inactive),1.67 µM (inactive),1.69 µM (inactive),2.06 µM (inactive),3.01 µM (inactive),9.73 µM (inactive),3.32 µM (inactive),1.67 µM (inactive),3.17 µM (inactive),2.67 µM (inactive),2.37 µM (inactive),> 58.9 µM (inactive)
Fc1ccc(NC(=S)SCc2ccc3c(c2)OCO3)cc1F,15.6 µM (inactive),19.7 µM (inactive),18.9 µM (inactive),21.8 µM (inactive),49.3 µM (inactive),23.2 µM (inactive),26.9 µM (inactive),15.3 µM (inactive),31.1 µM (inactive),20.6 µM (inactive),20.7 µM (inactive),16.8 µM (inactive),22.4 µM (inactive),11.1 µM (inactive),18.3 µM (inactive),16 µM (inactive),16.3 µM (inactive),33 µM (inactive),17.4 µM (inactive),17 µM (inactive)
CC(C)(O)C1CC[C@]2(C)CC[C@]3(C)[C@H](CC[C@@H]4[C@@]5(C)CC[C@H](O)C(C)(C)[C@@H]5CC[C@]43C)[C@@H]12 (some centres undefined),30.1 µM (inactive),22.1 µM (inactive),29.7 µM (inactive),26.8 µM (inactive),21 µM (inactive),14.5 µM (inactive),22.7 µM (inactive),,> 100 µM (inactive),34.1 µM (inactive),35.2 µM (inactive),29.1 µM (inactive),27.2 µM (inactive),32.5 µM (inactive),32.7 µM (inactive),26 µM (inactive),81.3 µM (inactive),,35.6 µM (inactive),58.2 µM (inactive)
CN(C)C(c1ccccc1)C1COC2Cc3ccccc3C1O2 (centres undefined),> 100 µM (inactive),> 100 µM (inactive),> 100 µM (inactive),> 100 µM (inactive),98.2 µM (inactive) and 86.9 µM (inactive),58.1 µM (inactive),92.3 µM (inactive),62.2 µM (inactive) and 64.4 µM (inactive),> 100 µM (inactive),> 100 µM (inactive),> 100 µM (inactive),> 100 µM (inactive),> 100 µM (inactive),> 100 µM (inactive),> 100 µM (inactive),> 100 µM (inactive),> 100 µM (inactive),,> 100 µM (inactive),> 100 µM (inactive)
CCC1NC(=O)C1NC(=O)OC (centres undefined),,> 100 µM (inactive),> 100 µM (inactive),> 100 µM (inactive),> 100 µM (inactive),> 100 µM (inactive),> 100 µM (inactive),> 100 µM (inactive),> 100 µM (inactive),> 100 µM (inactive),> 100 µM (inactive),> 100 µM (inactive),> 100 µM (inactive),> 100 µM (inactive),> 100 µM (inactive),> 100 µM (inactive),> 100 µM (inactive),> 100 µM (inactive),> 100 µM (inactive),> 100 µM (inactive)
C/C(CC/C(C)=N/O)=N\O,> 100 µM (inactive),> 100 µM (inactive),> 100 µM (inactive),> 100 µM (inactive),> 100 µM (inactive),,> 100 µM (inactive),> 100 µM (inactive),> 100 µM (inactive),> 100 µM (inactive),> 100 µM (inactive),> 100 µM (inactive),> 100 µM (inactive),> 100 µM (inactive),> 100 µM (inactive),> 100 µM (inactive),> 100 µM (inactive),> 100 µM (inactive),> 100 µM (inactive),> 100 µM (inactive)
Oc1cc2c3c(c1)CCCN3CCC2,> 10 µM (inactive),> 10 µM (inactive),> 10 µM (inactive),> 10 µM (inactive),> 10 µM (inactive),> 10 µM (inactive),> 10 µM (inactive),> 10 µM (inactive),> 10 µM (inactive),> 10 µM (inactive),> 10 µM (inactive),> 10 µM (inactive),> 10 µM (inactive),> 10 µM (inactive),> 10 µM (inactive),> 10 µM (inactive),> 10 µM (inactive),> 10 µM (inactive),> 10 µM (inactive),
